Values of other authors in patent US20130303466A1, “Chemosensory Receptor Ligand-Based Therapies” (ELCELYX THERAPEUTICS, INC., priority 2010, published 2013).

Biological target: T1, sweet receptor (Homo sapiens, UniProt Q7RTX0+Q8TE23)
T1 sequence (Q8TE23 20-839): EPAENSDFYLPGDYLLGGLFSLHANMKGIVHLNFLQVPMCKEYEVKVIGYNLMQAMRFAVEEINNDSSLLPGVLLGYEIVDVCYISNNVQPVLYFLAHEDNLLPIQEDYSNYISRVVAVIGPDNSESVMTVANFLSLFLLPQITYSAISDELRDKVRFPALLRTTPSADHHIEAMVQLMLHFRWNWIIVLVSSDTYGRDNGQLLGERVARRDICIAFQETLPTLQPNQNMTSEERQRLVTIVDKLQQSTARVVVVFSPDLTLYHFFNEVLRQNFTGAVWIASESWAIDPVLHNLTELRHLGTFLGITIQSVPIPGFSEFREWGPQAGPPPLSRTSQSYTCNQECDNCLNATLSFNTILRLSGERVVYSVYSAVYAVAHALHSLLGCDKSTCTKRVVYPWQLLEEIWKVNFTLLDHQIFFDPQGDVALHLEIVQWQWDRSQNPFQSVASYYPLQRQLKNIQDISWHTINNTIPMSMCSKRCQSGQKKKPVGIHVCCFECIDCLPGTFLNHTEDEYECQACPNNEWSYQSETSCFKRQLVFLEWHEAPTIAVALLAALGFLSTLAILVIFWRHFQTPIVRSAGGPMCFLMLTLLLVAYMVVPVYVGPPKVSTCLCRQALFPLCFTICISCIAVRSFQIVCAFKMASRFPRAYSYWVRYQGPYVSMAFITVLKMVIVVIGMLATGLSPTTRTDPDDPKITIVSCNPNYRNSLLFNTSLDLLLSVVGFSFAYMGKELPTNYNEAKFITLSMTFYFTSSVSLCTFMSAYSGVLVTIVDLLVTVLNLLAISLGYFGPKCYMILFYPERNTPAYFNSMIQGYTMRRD
T1 sequence (Q7RTX0 21-852): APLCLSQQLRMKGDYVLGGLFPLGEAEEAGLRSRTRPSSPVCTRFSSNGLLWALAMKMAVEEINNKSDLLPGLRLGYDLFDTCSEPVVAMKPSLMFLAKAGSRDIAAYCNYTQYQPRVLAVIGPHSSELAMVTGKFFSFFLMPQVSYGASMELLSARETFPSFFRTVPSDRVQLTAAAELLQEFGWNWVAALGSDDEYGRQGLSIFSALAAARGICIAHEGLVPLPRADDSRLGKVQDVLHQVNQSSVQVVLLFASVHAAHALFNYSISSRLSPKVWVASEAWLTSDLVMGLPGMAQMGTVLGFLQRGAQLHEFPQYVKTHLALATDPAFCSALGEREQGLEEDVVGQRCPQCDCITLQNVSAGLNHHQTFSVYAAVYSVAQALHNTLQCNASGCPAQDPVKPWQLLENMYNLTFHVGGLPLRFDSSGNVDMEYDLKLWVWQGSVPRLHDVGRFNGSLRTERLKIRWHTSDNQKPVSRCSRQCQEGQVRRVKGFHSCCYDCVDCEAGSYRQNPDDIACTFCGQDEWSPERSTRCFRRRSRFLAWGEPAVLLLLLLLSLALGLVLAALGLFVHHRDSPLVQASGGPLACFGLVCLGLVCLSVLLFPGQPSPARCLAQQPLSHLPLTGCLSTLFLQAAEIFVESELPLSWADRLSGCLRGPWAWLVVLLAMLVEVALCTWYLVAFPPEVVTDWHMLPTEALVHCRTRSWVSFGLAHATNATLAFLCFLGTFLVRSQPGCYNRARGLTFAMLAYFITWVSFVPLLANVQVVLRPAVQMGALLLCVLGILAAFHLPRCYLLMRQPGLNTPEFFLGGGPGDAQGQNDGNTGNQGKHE
Conditions: relative sweetness on a weight comparison basis to sucrose (= 1.0); ranges: relative sweetness varied with the concentration of sucrose; adapted from Kim et al., 2002

| Sweetness/potency | Compound |
| --- | --- |
| 85 | Periandrin IV [Periandrin IV (60)] |
| 1,600 | Thaumatin |
| 210 | C=C1C[C@@]23CC[C@H]4[C@@](C)(CCC[C@@]4(C)C(=O)O[C@@H]4O[C@H](CO)[C@@H](O)[C@H](O)[C@H]4O)[C@@H]2CC[C@]1(O[C@@H]1O[C@H](CO)[C@@H](O)[C@H](O)[C@H]1O[C@@H]1O[C@H](CO)[C@@H](O)[C@H](O)[C@H]1O)C3 [Stevioside (5), Stevioside] |
| 50 | Pterocaryoside A [Pterocaryoside A (62)] |
| 95 | Periandrin II [Periandrin II (58)] |
| 150 | Rebaudioside B [Rebaudioside B (16)] |
| 90 | CC1(C)[C@@H](O[C@@H]2O[C@H](C(=O)O)[C@@H](O)[C@H](O)[C@H]2O[C@@H]2O[C@H](C(=O)O)[C@@H](O)[C@H](O)[C@H]2O)CC[C@]2(C=O)[C@H]3CC[C@@H]4C5=C[C@@](C)(C(=O)O)CC[C@]5(C)CC[C@@]4(C)[C@]3(C)CC[C@@H]12 [Periandrin I (57), Periandrin I] |
| 90 | C=C1C[C@@]23CC[C@H]4[C@@](C)(CCC[C@@]4(C)C(=O)O)[C@@H]2CC[C@]1(O[C@@H]1O[C@H](CO)[C@@H](O)[C@H](O)[C@H]1O[C@@H]1O[C@H](CO)[C@@H](O)[C@H](O)[C@H]1O)C3 [Steviolbioside (22), Steviolbioside] |
| 92 | CC1(C(=O)O)C=C2C3CCC4C5(CO)CCC(OC6OC(C(=O)O)C(O)C(O)C6OC6OC(C(=O)O)C(O)C(O)C6O)C(C)(C)C5CCC4(C)C3(C)CCC2(C)CC1 (centres unmarked) [Periandrin III (59), Periandrin III] |
| ca. 1 | C/C(=C\CC/C(C)=C/CO[C@@H]1O[C@H](CO)[C@@H](O)[C@H](O[C@@H]2O[C@@H](C)[C@H](O)[C@@H](O)[C@H]2O)[C@H]1O[C@@H]1O[C@@H](C)[C@H](O)[C@@H](O)[C@H]1O)CC/C=C(\C)CO[C@@H]1O[C@H](CO)[C@@H](O)[C@H](O[C@@H]2O[C@@H](C)[C@H](O)[C@@H](O)[C@H]2O)[C@H]1O[C@@H]1O[C@@H](C)[C@H](O)[C@@H](O)[C@H]1O [Mukurozioside IIb (13), Mukurozioside IIb] |
| 1,000 | COc1ccc(CCC(=O)c2c(O)cc(O[C@@H]3O[C@H](CO)[C@@H](O)[C@H](O)[C@H]3O[C@@H]3O[C@@H](C)[C@H](O)[C@@H](O)[C@H]3O)cc2O)cc1O [Neohesperidin dihydrochalcone (82), Neohesperidin dihydrochalcone] |
| 3,000 | Monellin |
| 100 | C=C(C)C1CCC2(C)C(CC(OC3OCC(O)C(O)C3O)C3C(C(C)(O)C/C=C/C(C)(C)O)CCC32C)C1(C)CCC(=O)O (centres unmarked) [Pterocaryoside B (63), Pterocaryoside B] |
| 54 | Scandenoside R6 [Scandenoside R6 (39)] |
| 220 | CC1(C(=O)O)C=C2C3CCC4C5(C=O)CCC(OC6OC(C(=O)O)C(O)C(O)C6OC6OCC(O)C(O)C6O)C(C)(C)C5CCC4(C)C3(C)CCC2(C)CC1 (centres unmarked) [Periandrin V (61), Periandrin V] |
| 500 | Pentadin |
| 30 | Dulcoside A [Dulcoside A (15)] |
| 500 | C[C@@H]1O[C@@H](O[C@H]2O[C@@H]([C@@H](C)C3CC[C@@H]4[C@H]5CC(=O)[C@@H]6C[C@H](O[C@@H]7O[C@H](CO)[C@@H](O)[C@H](O)[C@H]7O[C@@H]7O[C@@H](C)[C@H](O)[C@@H](O)[C@H]7O)CC[C@]6(C)[C@@H]5CC[C@]34C)CC[C@@H]2C)[C@H](O)[C@H](O)[C@H]1O (some centres unmarked) [Osladin (64), Osladin] |
| 600 | Polypodoside A [Polypodoside A (65)] |

The next lines start with the compound.

| Compound | Sweetness/potency |
| --- | --- |
| COc1ccc(C2Oc3cc(O)cc(O)c3C(=O)C2OC(C)=O)cc1O (centres unmarked) [Dihydroquercetin 3-O-acetate 4′-methyl ether] | 400 |
| CC1=CC[C@@H]([C@@H](C)[C@H]2CC[C@@]3(C)[C@@H]4CC[C@H]5[C@](C)(C(=O)O)[C@@H](O[C@@H]6O[C@H](CO)[C@@H](O)[C@H](O)[C@H]6O[C@@H]6O[C@H](C(=O)O)[C@@H](O)[C@H](O)[C@H]6O)CC[C@@]56C[C@@]46CC[C@]23C)OC1=O [Abrusoside D (45), Abrusoside D] | 75 |
| Cyclocaryoside I [Cyclocaryoside I (48)] | 250 |
| COc1c(O)cc2c(c1O)C(=O)[C@H](OC(C)=O)[C@@H](c1ccc(O)c(O)c1)O2 [(2R,3R)-2,3-Dihydro-5,7,3′,4′-tetrahydroxy-6-methoxy-3-O-acetylflavonol] | 25 |
| CC1=CC[C@@H]([C@@H](C)[C@H]2CC[C@@]3(C)[C@@H]4CC[C@H]5[C@](C)(C(=O)O)[C@@H](O[C@@H]6O[C@H](CO)[C@@H](O)[C@H](O)[C@H]6O[C@@H]6O[C@H](CO)[C@@H](O)[C@H](O)[C@H]6O)CC[C@@]56C[C@@]46CC[C@]23C)OC1=O [Abrusoside C (44), Abrusoside C] | 50 |
| Brazzein: sweet protein from Pentadiplandra brazzeana Baillon (QDKCKKVYENYPVSKCQLANQCNYDCKLDKHARSGECFYDEKRNLQCICDYCEY; UniProt P56552 1-54, looked up) | 2,000 |
| C=C(C)C1CC=C(/C=N/O)CC1 (centres unmarked) [Perillartine (10), Perillartine] | 370 |
| C/C(=C\CC[C@@H](C)[C@H]1CC[C@@]2(C)[C@@H]3CC=C4[C@@H](CC[C@H](O[C@@H]5O[C@H](CO)[C@@H](O)[C@H](O)[C@H]5O)C4(C)C)[C@]3(C)[C@H](O)C[C@]12C)CO[C@@H]1O[C@H](CO[C@@H]2O[C@H](CO)[C@@H](O)[C@H](O)[C@H]2O)[C@@H](O)[C@H](O)[C@H]1O [Carnosifloside VI (36), Carnosifloside VI] | 77 |
| CC(C)=CCC[C@](C)(O)[C@@H]1CCC(C)=CC1=O [(+)-Hernandulcin (11), (+)-Hernandulcin] | 1,500 |
| Oc1cc2c(cc1O)[C@@H]1c3ccc(O)c(O)c3OC[C@]1(O)C2 [Hematoxylin (99), Hematoxylin] | 120 |
| Curculin | 550 |
| Albiziasaponin B [Albiziasaponin B (51)] | 600 |
| COC(=O)[C@H]1O[C@@H](O[C@H]2[C@H](O[C@H]3CC[C@]45C[C@]46CC[C@]4(C)[C@@H]([C@H](C)[C@@H]7CC=C(C)C(=O)O7)CC[C@@]4(C)[C@@H]6CC[C@H]5[C@]3(C)C(=O)O)O[C@H](CO)[C@@H](O)[C@@H]2O)[C@H](O)[C@@H](O)[C@@H]1O [Abrusoside B (43), Abrusoside B] | 100 |
| Carnosifloside V [Carnosifloside V (35)] | 51 |
| CC(=O)O[C@H]1C(=O)c2c(O)cc(O)cc2O[C@@H]1c1ccc(O)c(O)c1 [(2R,3R)-Dihydroquercetin 3-O-acetate] | 80 |
| CC1(C(=O)O)CCC2(C)CCC3(C)C(=CC(=O)C4C5(C)CCC(OC6OC(C(=O)O)C(O)C(O)C6OC6OCC(O)(CO)C6O)C(C)(C)C5CCC43C)C2C1 (centres unmarked) [Apioglycyrrhizin (55), Apioglycyrrhizin] | 300 |
| CC1=CC[C@@H]([C@@H](C)[C@H]2CC[C@@]3(C)[C@@H]4CC[C@H]5[C@](C)(C(=O)O)[C@@H](O[C@@H]6O[C@H](CO)[C@@H](O)[C@H](O)[C@H]6O)CC[C@@]56C[C@@]46CC[C@]23C)OC1=O [Abrusoside A (42), Abrusoside A] | 30 |
| Cyclocarioside A [Cyclocarioside A (47)] | 200 |
| O=C/C=C/c1ccccc1 [Trans-Cinnamaldehyde (79), Trans-Cinnamaldehyde] | 50 |
